According to US6395467B1 (priority 1998, dated 2002):

Columns and labels:
[1] = Glass-forming tendency: concentration needed to vitrify (Cv), Q and qv*; assay type: physicochemical; conditions: for Moles of water/mole of CPA (10/Q): pure CPA at Cv; for qv* (Moles of water/mole of polar groups at Cv): pure CPA, Table 1
Excerpt: The qv* method for identifying useful cryoprotectant solutions based on this concentration scale is: to select at least one cryoprotectant whose qv* is below 2.0, include it in a mixture with other cryoprotectants, determine the Cv of the resulting mixture in the normal way (see, for example, Fahy et al, Cryobiology 21: 407-426, 1984), calculate q* at Cv (qv*) (note: the number of moles of water can be readily determined from the weight of a given volume of solution minus the number of grams of all solutes, i.e., from the number of grams of water per unit volume or per unit weight), compare the resulting qv* value to the qv* values of alternative cryoprotectant solutions, and selecting lower qv* value solutions in general preference to higher qv* solutions. qv* values can be estimated adequately from published Q values by estimating that the densities of all solution components as pure substances are unchanged by being in solution with other substances (the validity of a similar approach in deriving Q from % w/v concentrations is discussed in Fahy, in: Low Temperature Biotechnology: Emerging Applications and Engineering Contributions, J.J. McGrath and K. R. Diller, eds, ASME, 1988, pp. 113146.)
“Cv” is the concentration needed to vitrify 5-10 ml of solution at a cooling rate of about 10° C./min.
“qv*=[(#moles of water)/(mole]/[(# polar groups)/(mole cryoprotectant)] or
qv*=(#moles of water per unit volume or per unit mass of solution)/(# moles of polar groups on penetrating cryoprotectants per unit volume or unit mass of solution) at Cv”.

[2] = cited from earlier work; for Q (moles of CPA per 10 moles of water): pure CPA at Cv
[3] = test system: rabbit renal cortical slices; assay: Toxicity of cryoprotectant solutions to rabbit renal cortical slices (K/Na ratio after exposure, washout and 90 min at 25° C.); assay type: cell-based
Excerpt: FIGS. 1 and 2 display a reanalysis (performed in early July of 1998) of public information (Fahy, Levy, and Ali, Cryobiology 24: 196213, 1987) on the toxicity of several vitrification solutions of known composition. These vitrification solutions will vitrify at 1,000 atmospheres and contain either 6% polyvinyl pyrrolidone of relative molecular mass 40 kDa [PVP K30] or 6% polyethylene glycol [PEG 8000]. The data set is advantageous because all solutions analyzed are vitrifiable, the data set has low standard errors, and toxicity was convincingly dissociated from osmotic factors (see Fahy, Levy, and Ali, 1987, for discussion). In this example, viability was defined by the ratio of primarily intracellular potassium to intracellular sodium (K/Na ratio) after cryoprotectant washout and active metabolism for 90 min at the optimum temperature of 25° C. The test system was rabbit renal cortical slices.
[…] Each step is 20 min except for 1X step, which is 40 min. All steps done at 0° C.

[4] = test system: rat hepatocytes; assay: Rat hepatocytes in suspension, trypan blue dye exclusion after cryoprotectant exposure or freezing to −140° C.; assay type: cell-based; conditions: 10% v/v
Experimental: A recent freezing experiment compared freezing of rat hepatocytes in suspension to −140° C. in the presence of either 10% v/v DMSO or 10% v/v Veg solutes. Relative to the initial viability, 98% of the Veg-treated, non-frozen hepatocytes were able to exclude trypan blue dye, whereas only 70% of the DMSO-treated, non-frozen hepatocytes retained their dye exclusion capability after addition and removal of DMSO alone. After freezing and thawing, 65% of the initial number of freshly isolated hepatocytes remained capable of excluding trypan blue dye, whereas only 60% of frozen-thawed hepatocytes retained this ability when frozen with DMSO.

[5] = test system: rabbit kidney slices; assay: Freezing of rabbit kidney slices to −130° C., K/Na ratio after freezing and thawing; assay type: cell-based; conditions: 30% w/v cryoprotectant, frozen to −130° C.
Experimental: A recent freezing experiment compared freezing of rabbit kidney slices to −130° C. in the presence of either 30% w/v DMSO or 30% w/v Veg solutes. The K/Na ratio after freezing and thawing in DMSO was 2.46+/−0.30, whereas the K/Na ratio after freezing and thawing in 30% w/v Veg solutes was 3.10+/−0.07 (p<0.05).

[6] = test system: Human sperm; assay: Human sperm freezing and thawing, motility; assay type: cell-based; conditions: 2 M, cryoprotectant not removed
Experimental: Human sperm was exposed to 2 M Veg solutes or 2 M glycerol near 0° C. using gradual addition methods, then frozen, thawed, and videotaped without removing the cryoprotectant.

Row | SMILES | Moles of water/mole of CPA (10/Q) [1] | qv* (Moles of water/mole of polar groups at Cv) [1] | Q (moles of CPA per 10 moles of water) [2] | further results
1 | CC(=O)CO [Acetol, hydroxyacetone] | 2.8 | 1.4 | 3.6 moles of CPA per 10 moles of water | 
2 | OCCO [Ethylene glycol] | 3.0 | 1.4 | 3.3 moles of CPA per 10 moles of water | recovery (viability, FIG. 3) ([3]; at Cv, EuroCollins vehicle): less than 50%; concentrations not overtly harmful ([3]; in D(1)F-EG mixtures): ≤ 30 % w/v
3 | CC(N)=O [Acetamide] | 2.4 | 1.2 | 4.1 moles of CPA per 10 moles of water | 
4 | O=C(CO)CO [1,3-dihydroxyacetone] | 5 | 1.7 |  | 
5 | CC(O)CO (centres unmarked) [1,2-propanediol] |  |  |  | qv* ([1]; pure agent, b117): about 2.6
6 | C[S+](C)[O-] [DMSO, dimethyl sulfoxide] |  |  |  | hepatocytes capable of excluding trypan blue dye, of the initial number of freshly isolated hepatocytes ([4]; after freezing to −140° C. and thawing): 60%; hepatocytes able to exclude trypan blue dye, relative to the initial viability ([4]; non-frozen, after addition and removal): 70%; K/Na ratio after freezing and thawing [5]: 2.46+/−0.30
7 | OCC(O)CO [glycerol] |  |  |  | sperm motility after freezing and thawing [6]: largely quiescent upon thawing
8 | NC=O [formamide] |  |  |  | maximum concentration associated with minimal injury ([3]; in D(1)F-EG mixtures, 57-58% w/v total): about 14%; vitrification of aqueous solutions ([2]; agent alone): do not vitrify
9 | CNC=O [N-Methyl-Formamide] | 2.6 | 1.3 | 3.9 moles of CPA per 10 moles of water | 
10 | OCCCO [1,3-propanediol] | 3.2 | 1.6 | 3.1 moles of CPA per 10 moles of water | 
